# Where “and” joins values, the source holds several entries; their conditions need not be identical. Equal values may be shown once. Read-outs that look alike come from different tables or passages of the source.
# What was measured:
# [1] = Clinical test of phenylbutazone and phenylbutazone + glucoprotein, BSG (Table 5); format: in vivo, patients; conditions: 1.0 g phenylbutazone 3 × daily orally, after 8 days
# [2] = 0.5 mg Dexam 3 × daily perorally, after 5 days
# [3] = tested on: strept. pneumon. ATCC 6302; test: Bactericidal activity in vitro, cylinder test (Table 1); format: cell-based; conditions: 18 h at 37° C., average of three individual measurements; read-out: Bactericidal action (MIC)
# [4] = tested on: strept. pneumon. ATCC 6301; test: as above; format: cell-based; conditions: 18 h at 37° C., average of three individual measurements; read-out: Bactericidal action (MIC)
# [5] = tested on: strept. faecalis ATCC 8043; test: as above; format: cell-based; conditions: Enterococcus faecalis, ATCC8043; 18 h at 37° C., average of three individual measurements; read-out: Bactericidal action (MIC)
# [6] = tested on: fungi; test: Fungicidal activity (statement); format: cell-based; conditions: ampicillin alone
# Experimental: The MIC-values for the fungicidal activity of the combination product were determined according to the provisions of the American Soc. of Clinical Microbiology, Manual of Clinical Microbiology, 2nd Edition (Washington, D.C.).
# [7] = tested on: ps. aeruginosa NCTC 10662; test: Bactericidal activity in vitro, cylinder test (Table 1); format: cell-based; conditions: Pseudomonas aeruginosa, NCTC10662; 18 h at 37° C., average of three individual measurements; read-out: Bactericidal action (MIC)
# [8] = tested on: escherichia coli NCTC 10418; test: as above; format: cell-based; conditions: NCTC10418, 18 h at 37° C., average of three individual measurements, read-out: Bactericidal action (MIC)
# [9] = tested on: strept. pyogenes ATCC 8668; test: as above; format: cell-based; conditions: Streptococcus pyogenes, ATCC8668; 18 h at 37° C., average of three individual measurements; read-out: Bactericidal action (MIC)
# [10] = tested on: stapyloc. aur. ATCC 11522; test: as above; format: cell-based; conditions: 18 h at 37° C., average of three individual measurements; read-out: Bactericidal action (MIC)
# [11] = tested on: strains which form Penicillinase; test: Bactericidal activity against penicillinase-forming strains (statement); format: cell-based; conditions: ampicillin alone
# [12] = tested on: strept. faecalis ATCC 10541; test: Bactericidal activity in vitro, cylinder test (Table 1); format: cell-based; conditions: Enterococcus faecalis, ATCC10541; 18 h at 37° C., average of three individual measurements; read-out: Bactericidal action (MIC)
# [13] = tested on: staphyloc. aur. NCTC 6571; test: as above; format: cell-based; conditions: 18 h at 37° C., average of three individual measurements; read-out: Bactericidal action (MIC)
# [14] = tested on: stapyloc. aur. ATCC 6538 P (Penicillinase forming substance); test: as above; format: cell-based; conditions: 18 h at 37° C., average of three individual measurements
# [15] = tested on: aerobacter aeroges; test: Bactericidal MIC-values, 50 strains (Table 2); format: cell-based; conditions: of 50 strains; MIC steps 2000 to 0.0002 γ/ml, counts in descending MIC order
# [16] = tested on: strept. faecalis ATCC 19433; test: Bactericidal activity in vitro, cylinder test (Table 1); format: cell-based; conditions: Enterococcus faecalis, ATCC19433; 18 h at 37° C., average of three individual measurements; read-out: Bactericidal action (MIC)
# [17] = tested on: proteus mirabilis b, Penicillinase-forming substance; test: Bactericidal MIC-values, 50 strains (Table 2); format: cell-based; conditions: of 50 strains; MIC steps 2000 to 0.0002 γ/ml, counts in descending MIC order
# [18] = tested on: psuedomonas aeruginosa; test: Bactericidal MIC-values, 50 strains (Table 2); format: cell-based; conditions: of 50 strains; MIC steps 2000 to 0.0002 γ/ml, counts in descending MIC order
# [19] = tested on: staphyl. aur. b, Penicillinase-forming substance; test: Bactericidal MIC-values, 50 strains (Table 2); format: cell-based; conditions: of 50 strains; MIC steps 2000 to 0.0002 γ/ml, counts in descending MIC order
# [20] = tested on: h. influencae ATCC 19418; test: Bactericidal activity in vitro, cylinder test (Table 1); format: cell-based; conditions: 18 h at 37° C., average of three individual measurements; read-out: Bactericidal action (MIC)
# [21] = Clinical test of Norfenefrin and Norfenefrin + glucoprotein, blood pressure (Table 6); format: in vivo, patients; conditions: 14th day, 3.0 mg Norfenefrin once daily
# [22] = three hours after medication, individual patient
smiles,measurement,setting,value
CCCCC1C(=O)N(c2ccccc2)N(c2ccccc2)C1=O [phenylbutazone],"BSG after 1 h., average",[1]; average of 10 patients,33.2
same,"BSG after 2 h., average",[1]; average of 10 patients,57.9
same,BSG after 1 h.,[1]; individual patient,38 and 40 and 35 and 30 and 28 and 32 and 25
same,BSG after 2 h.,[1]; individual patient,62 and 60 and 50 and 45 and 58
"C[C@@H]1C[C@H]2[C@@H]3CCC4=CC(=O)C=C[C@]4(C)[C@@]3(F)[C@@H](O)C[C@]2(C)[C@@]1(O)C(=O)CO [Dexam, dexamethasone]","ASLO, average",[2]; average of 10 patients,220 i.E.
same,"BSG after 1 h., average",[2]; average of 10 patients,23.5
same,"BSG after 2 h., average",[2]; average of 10 patients,38.8
same,ASLO,[2]; individual patient,200 i.E. and 100 i.E. and 300 i.E.
same,BSG after 1 h.,[2]; individual patient,25 and 20 and 30 and 24 and 22
same,BSG after 2 h.,[2]; individual patient,30 and 35 and 40 and 45 and 50 and 42 and 38 and 36 and 34
"CC1(C)S[C@@H]2[C@H](NC(=O)[C@H](N)c3ccccc3)C(=O)N2[C@H]1C(=O)O [Ampicillin, D-(2-amino-2-phenylacetamido)-3,3-dimethyl-7-oxo-4-thia-1-azabicyclo-[3,2,0]-heptane-2-carboxylic acid]",MIC,[3],0.06 µg/mL
same,MIC,[4],0.06 µg/mL
same,MIC,[5],2 µg/mL
same,fungicidal activity,[6],no fungicidal activity which can be evaluated in practice
same,MIC,[7],240 µg/mL
same,MIC,[8],8 µg/mL
same,MIC,[9],0.03 µg/mL
same,MIC,[10],0.06 µg/mL
same,action against Penicillinase-forming strains,[11],completely ineffective
same,MIC,[12],1 µg/mL
same,MIC,[13],0.06 µg/mL
same,Bactericidal action (MIC),[14],resistant
same,Bactericidal MIC-values: number of strains at each MIC step,[15],50
same,MIC,[16],2 µg/mL
same,Bactericidal MIC-values: number of strains at each MIC step,[17],50
same,Bactericidal MIC-values: number of strains at each MIC step,[18],50
same,Bactericidal MIC-values: number of strains at each MIC step,[19],50
same,MIC,[20],0.25 µg/mL
NCC(O)c1cccc(O)c1 (centres unmarked) [Norfenefrin],diastolic blood pressure,[21]; [22],70 and 75 and 80
same,systolic blood pressure,[21]; [22],120 and 125 and 130
same,"diastolic blood pressure, average",[21]; average of 10 patients,76.5
same,"systolic blood pressure, average",[21]; average of 10 patients,126.0

# — patent US4153686A, “Process for the preparation of glucoproteins as well as the use thereof” (priority 1976, dated 1979)
